Consider 31 molecules from patent publication US10023519B2, “Cyclobutane containing carboxylic acid GPR120 modulators” (BRISTOL-MYERS SQUIBB COMPANY, priority 2014, dated 2018).

For this experiment, the target named is human GPR120 (Homo sapiens (Human), UniProt Q5NUL3). In words: GPR120 pERK AlphaScreen SureFire Assay (human). Type of experiment: cell-based. The following applies: CHO cells stably transfected with short form of human GPR120.
Chain of human GPR120 (Q5NUL3 whole entry): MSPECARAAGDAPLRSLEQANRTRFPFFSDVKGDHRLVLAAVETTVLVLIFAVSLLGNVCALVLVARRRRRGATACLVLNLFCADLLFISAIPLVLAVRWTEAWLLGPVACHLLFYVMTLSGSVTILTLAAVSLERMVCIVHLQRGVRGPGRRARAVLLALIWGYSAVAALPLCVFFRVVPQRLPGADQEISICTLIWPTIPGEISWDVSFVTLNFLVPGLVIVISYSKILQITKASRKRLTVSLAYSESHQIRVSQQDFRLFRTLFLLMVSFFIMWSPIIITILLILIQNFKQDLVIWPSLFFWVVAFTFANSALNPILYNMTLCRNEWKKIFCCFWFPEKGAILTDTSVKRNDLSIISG
Excerpt: GPR120 activity was monitored by measuring phosphorylation of ERK (pERK), since G protein receptors are known to activate the ERK signaling cascade either directly and/or through recruitment of arrestin that serves as a scaffold for downstream signaling events.
GPR120 pERK AlphaScreen SureFire Assay
The human and mouse GPR120-mediated intracellular phosphorylated ERK assays were established using CHOA12 cells stably transfected with the short form of human or mouse GPR120 receptor. […] Cells were cryo preserved at a concentration of 2×10^7 cells/mL, in 90% Charcoal/Dextran FBS and 10% DMSO, and frozen in liquid nitrogen at a low passage number.
The flasks were placed in a tissue culture incubator overnight (37° C., 5% CO2). […] The next day, cells were serum starved in 30 μL of F-12 media without any serum or antibiotics for 2 hours at 37° C.
Cells were then stimulated with 50 nL of compound dilutions using ECHO liquid handler for 7 minutes at 37° C.
(§1) The lysis buffer was diluted 5-fold with water before use. […] The SureFire assay reagent mix was prepared by mixing 60 parts Reaction Buffer, 10 parts Activation Buffer, 1 part Donor Beads, 1 part Acceptor Beads (Perkin Elmer Cat. #TGRES10K). 3.5 μL/well of this reagent mix was manually added to the proxiplate with a multichannel pipettor. Plates were spun down at 1000 rpm for 2 minutes, followed by light-protected incubation at room temperature for 2 hours. The plates were read on the Alpha-technology compatible Envision multilabel plate reader using AlphaScreen protocol according to manufacturer's specifications. The agonist effect of compounds was expressed as 100× (average sample−average blank)/(average total−average blank) where sample is the luminescence activity in the presence of test compound, blank is equal to the luminescence activity in the presence of DMSO control and the total is signal induced by 50 μM linolenic acid as reference compound. Activation data for the test compound over a range of concentrations was plotted as percentage activation of the test compound (100%=maximum response). After correcting for background, EC50 values were determined.
The human and mouse GPR120-mediated intracellular phosphorylated ERK assays were also established using CHO-K1 cells stably transfected with the short form of human or mouse GPR120 receptor. […] Cells were cryo preserved at a concentration of 3×10^6 cells/mL, in 70% F-12, 20% Charcoal/Dextran FBS and 10% DMSO, and frozen in liquid nitrogen at a low passage number.
The flasks were placed in a tissue culture incubator overnight (37° C., 5% CO2).
Cells were then stimulated with 40 nL of compound dilutions using ECHO liquid handler for 7 minutes at 37° C.
as §1, with “compound.” for “compound. Activation data for the test compound over a range of concentrations was plotted as percentage activation of the test compound (100%=maximum response). After correcting for background, EC50 values were determined.”
Activation data for the test compound over a range of concentrations was plotted as percentage activation of the test compound (100%=maximum response). After correcting for background, EC50 values were determined.
(Alpha assays give light when donor and acceptor beads are brought close together.)
Broadly, the EC50 is the concentration giving half of the maximal effect. Consider `Cc1nc(-c2ccc(F)c(-c3ccc([C@H]4C[C@@H](OCC(=O)O)C4)cc3)c2)no1` [Example 21, Cis-2-(3-(2′-Fluoro-5′-(5-methyl-1,2,4-oxadiazol-3-yl)-[1,1′-biphenyl]-4-yl)cyclobutoxy)acetic acid], for which the EC50 is 550 nM.

Molecule `C[C@]1(CCCOCC(=O)O)C[C@H](c2cccc(Oc3ccccc3)c2)C1` [Example 61, 2-(3-(Trans-1-methyl-3-(3-phenoxyphenyl)cyclobutyl)propoxy)acetic acid] showed an EC50 of 150 nM.

Molecule `O=C(O)COCCC[C@H]1C[C@H](c2cccc(Oc3ccccc3)c2)C1` [Example 56, 2-(3-(Trans-3-(3-phenoxyphenyl)cyclobutyl)propoxy)acetic acid] gave an EC50 of 170 nM.

Take `O=C(O)CO[C@H]1C[C@@H](c2ccc(-c3cc(OC(F)(F)F)ccc3F)cc2)C1` [Example 17, Cis-2-(3-(2′-fluoro-5′-(trifluoromethoxy)-[1,1′-biphenyl]-4-yl)cyclobutoxy)acetic acid]: a half-maximal response (EC50) required 550 nM.

For `CC(C)Oc1ccc(F)c(-c2ccc(C=C3CC(C(=O)O)C3)cc2)c1` (stereo not shown) [Example 47, 3-((2′-Fluoro-5′-isopropoxy-[1,1′-biphenyl]-4-yl)methylene)cyclobutanecarboxylic acid], the EC50 turned out to be 460 nM.

Regarding `O=C(O)CO[C@H]1C[C@H](c2ccc(-c3cc(Oc4ccccc4)ccc3F)cc2)C1` [Example 39, Trans-2-(3-(2′-fluoro-5′-phenoxy-[1,1′-biphenyl]-4-yl)cyclobutoxy)acetic acid], the EC50 is 410 nM. The EC50 values of the last two molecules are within 1.5-fold of each other.

`O=C(O)COCCC[C@H]1C[C@@H](c2cccc(Oc3ccccc3)c2)C1` [Example 58, 2-(3-(Cis-3-(3-phenoxyphenyl)cyclobutyl)propoxy)acetic acid]: the EC50 came out at 420 nM.

As for `O=C(O)C[C@H]1C[C@H](Oc2ccc(-c3cc(Oc4ccccc4)ccc3F)cc2)C1` [Example 66, Trans-2-(3-((2′-fluoro-5′-phenoxy-[1,1′-biphenyl]-4-yl)oxy)cyclobutyl)acetic acid], the EC50 was 110 nM.

Molecule `C[C@]1(CCCOCC(=O)O)C[C@@H](c2cccc(Oc3ccccc3)c2)C1` [Example 60, 2-(3-(Cis-1-methyl-3-(3-phenoxyphenyl)cyclobutyl)propoxy)acetic acid] yielded an EC50 of 740 nM.

Molecule `CC(C)Oc1cc(Cl)cc(-c2ccc([C@H]3C[C@@H](OCC(=O)O)C3)cc2)c1` [Example 11, Cis-2-(3-(3′-chloro-5′-isopropoxy-[1,1′-biphenyl]-4-yl)cyclobutoxy) acetic acid] showed an EC50 of 560 nM.

`O=C(O)CO[C@H]1C[C@@H](c2ccc(-c3cccc(Cc4ccccc4)c3)cc2)C1` [Example 9, Cis-2-(3-(3′-benzyl-[1,1′-biphenyl]-4-yl)cyclobutoxy)acetic acid] gave an EC50 of 1590 nM.

With `O=C(O)CO[C@H]1C[C@@H](c2ccc(-c3cc(Oc4cccc(F)c4)cc(F)c3F)cc2)C1` [Example 36, Cis-2-(3-(2′,3′-difluoro-5′-(3-fluorophenoxy)-[1,1′-biphenyl]-4-yl)cyclobutoxy) acetic acid], the EC50 was 130 nM.

Take `CC(C)Sc1ncc(C(F)(F)F)cc1-c1ccc([C@H]2C[C@@H](OCC(=O)O)C2)cc1` [Example 13, Cis-2-(3-(4-(2-(isopropylthio)-5-(trifluoromethyl)pyridin-3-yl)phenyl)cyclobutoxy)acetic acid]: the EC50 came out at 2610 nM.

In turn, `O=C(O)CO[C@H]1C[C@@H](c2ccc(-c3cc(OC4CCCC4)ccc3F)cc2)C1` [Example 3, Cis-2-(3-(5′-(cyclopentyloxy)-2′-fluoro-[1,1′-biphenyl]-4-yl)cyclobutoxy)acetic acid] gave an EC50 of 410 nM.

Turning to `COC1(c2cccc(Oc3ccccc3)c2)CC(CCCOCC(=O)O)C1` (stereo not shown) [Example 68, 2-(3-(3-Methoxy-3-(3-phenoxyphenyl)cyclobutyl)propoxy)acetic acid], it took 2800 nM to reach a half-maximal effect (EC50).

`Cc1ccc(Oc2ccc(F)c(-c3ccc([C@H]4C[C@@H](OCC(=O)O)C4)cc3)c2)cn1` [Example 20, Cis-2-(3-(2′-fluoro-5′-((6-methylpyridin-3-yl)oxy)-[1,1′-biphenyl]-4-yl)cyclobutoxy) acetic acid]: the EC50 amounted to 270 nM.

`CC(C)Oc1ccc(F)c(-c2ccc([C@H]3C[C@@H](CC(=O)O)C3)cc2)c1` [Example 45, 2-(Cis-3-(2′-fluoro-5′-isopropoxy-[1,1′-biphenyl]-4-yl)cyclobutyl)acetic acid] yielded an EC50 of 120 nM.

On to `CC(C)Oc1cc(F)cc(-c2ccc([C@H]3C[C@@H](OCC(=O)O)C3)cc2)c1` [Example 18, Cis-2-(3-(3′-fluoro-5′-isopropoxy-[1,1′-biphenyl]-4-yl)cyclobutoxy) acetic acid], for which the EC50 amounted to 3130 nM.

For the molecule `O=C(O)CO[C@H]1C[C@@H](c2ccc(-c3cc(Oc4ccncc4)ccc3F)cc2)C1` [Example 25, Cis-2-(3-(2′-fluoro-5′-(pyridin-4-yloxy)-[1,1′-biphenyl]-4-yl)cyclobutoxy)acetic acid], the EC50 was found to be 1900 nM. This EC50 is about 1.6-fold lower than that of the molecule before.

In turn, `O=C(O)CCOC[C@H]1C[C@@H](OCc2cccc(Oc3ccccc3)c2)C1` [Example 55, 3-((Cis-3-(3-phenoxybenzyloxy)cyclobutyl)methoxy)propanoic acid] registered an EC50 of 470 nM.

With `Cc1ncc(Oc2ccc(F)c(-c3ccc([C@H]4C[C@@H](OCC(=O)O)C4)cc3)c2)s1` [Example 27, Cis-2-(3-(2′-fluoro-5′-((2-methylthiazol-5-yl)oxy)-[1,1′-biphenyl]-4-yl)cyclobutoxy)acetic acid], the EC50 was determined as 420 nM. The EC50 values of the last two molecules are within 1.5-fold of each other.

In turn, `Cc1nc(-c2ccccc2)c(-c2ccc([C@H]3C[C@@H](OCC(=O)O)C3)cc2)s1` [Example 23, Cis-2-(3-(4-(2-Methyl-4-phenylthiazol-5-yl)phenyl)cyclobutoxy)acetic acid] had an EC50 of 3460 nM. This EC50 lies about 8.2-fold higher than the previous one.

The molecule `CC(C)Oc1ccc(F)c(-c2ccc(C[C@H]3C[C@H](CC(=O)O)C3)cc2)c1` [Example 52, 2-(Trans-3-((2′-fluoro-5′-isopropoxy-[1,1′-biphenyl]-4-yl)methyl)cyclobutyl)acetic acid] came in with an EC50 of 940 nM.

In turn, “Cis-2-(3-(2′,3′-difluoro- 5′-(3- fluorophenoxy)-[1,1′- biphenyl]-4-yl)cyclobutoxy) acetic acid [Example 37]” yielded an EC50 of 590 nM.

Turning to `O=C(O)CO[C@H]1C[C@@H](c2ccc(-c3cc(OC4CCCCC4)ccc3F)cc2)C1` [Example 33, Cis-2-(3-(5′-(cyclohexyloxy)-2′-fluoro-[1,1′-biphenyl]-4-yl)cyclobutoxy)acetic acid], the EC50 stood at 760 nM. The EC50 values of the last two molecules are within 1.5-fold of each other.

`O=C(O)CCC[C@H]1C[C@@H](OCc2cccc(Oc3ccccc3)c2)C1` [Example 53, 4-(Cis-3-(3-phenoxybenzyloxy)cyclobutyl)butanoic acid] returned an EC50 of 430 nM. This EC50 is about 1.8-fold lower than that of the molecule before.

As to `Cc1ccc(Oc2ccc(F)c(-c3ccc([C@H]4C[C@@H](OCC(=O)O)C4)cc3)c2)cc1` [Example 31, Cis-2-(3-(2′-fluoro-5′-(p-tolyloxy)-[1,1′-biphenyl]-4-yl)cyclobutoxy)acetic acid], the EC50 was determined as 710 nM. Compared with the last molecule, the EC50 is about 1.7-fold higher.

Molecule `O=C(O)COCCC1CC(OCc2cccc(Oc3ccccc3)c2)C1` (stereo not shown) [Example 57, 2-(2-(3-(3-Phenoxybenzyloxy)cyclobutyl)ethoxy)acetic acid] returned an EC50 of 700 nM.

In turn, `CC(C)Oc1ccc(F)c(-c2ccc([C@H]3C[C@@H](CCC(=O)O)C3)cc2)c1` [Example 46, Cis-3-(3-(2′-fluoro-5′-isopropoxy-[1,1′-biphenyl]-4-yl)cyclobutyl)propanoic acid] showed an EC50 of 650 nM. The EC50 values of the last two molecules are within 1.5-fold of each other.

`C[C@]1(CCCOCCC(=O)O)C[C@@H](c2cccc(Oc3ccccc3)c2)C1` [Example 62, 3-(3-(Cis-1-methyl-3-(3-phenoxyphenyl)cyclobutyl)propoxy)propanoic acid] showed an EC50 of 570 nM.

In turn, `O=C(O)C[C@H]1C[C@@H](Oc2ccc(-c3cc(Oc4ccccc4)ccc3F)cc2)C1` [Example 67, Cis-2-(3-((2′-fluoro-5′-phenoxy-[1,1′-biphenyl]-4-yl)oxy)cyclobutyl)acetic acid] registered an EC50 of 330 nM. Compared with the last molecule, the EC50 is about 1.7-fold lower.
